# From publication PMC10734772 (Turkish Journal of Chemistry, 2021)
row,SMILES,melting point [°C]
1,"Cc1ccnc(Nc2cc(NC(=O)c3ccc(CN4CCN(c5ncccn5)CC4)cc3)ccc2C)n1 [Compound 5, N-(4-Methyl-3-((4-methylpyrimidin-2-yl)amino)phenyl)-4-((4-(pyrimidin-2-yl)piperazin-1-yl)methyl)benzamide]",89
2,"Cc1ccc(NC(=O)c2ccc(CN3CCN(c4ncccn4)CC3)cc2)cc1Nc1cnccn1 [Compound 7, N-(4-Methyl-3-(pyrazin-2-ylamino)phenyl)-4-((4-(pyrimidin-2-yl)piperazin-1-yl)methyl)benzamide]",143
3,"Cc1ccnc(Nc2cc(NC(=O)c3ccc(CN4CCOCC4)cc3)ccc2C)n1 [Compound 8, N-(4-Methyl-3-((4-methylpyrimidin-2-yl)amino)phenyl)-4-(morhpolinomethyl)benzamide]",157
4,"Cc1ccnc(Nc2cc(NC(=O)c3ccc(CN4CCOCC4)cc3)ccc2C)c1 [Compound 9, N-(4-Methyl-3-((4-methylpyridin-2-yl)amino)phenyl)-4-(morhpolinomethyl)benzamide]",155 to 157
5,"COc1ccc(CN2CCN(Cc3ccc(C(=O)Nc4ccc(C)c(Nc5cc(C)ccn5)c4)cc3)CC2)c(OC)c1OC [Compound 10, N-(4-Methyl-3-((4-methylpyridin-2-yl)amino)phenyl)-4-((4-(2,3,4-trimethoxybenzyl)piperazin-1-yl)methyl)benzamide]",87
